In patent US20220009920A1 (GB005, Inc., priority 2020, published 2022):

Tests used:
Test in all cases: Large panel kinase profiling
Assay type in all cases: biochemical
Conditions in all cases: 1 μM test article, 1 mM ATP
FGR = FGR (Homo sapiens, UniProt P09769)
How it was run: (§1)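 CSox-Sensor fluorescence readout; test article 1 μM, ATP 1 mM, 30° C.; kinetic reads at 1-min intervals, Ex 360/Em 485 nm.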

SK1 = biological target: T1, SK1 (Homo sapiens, UniProt P57059)
T1 construct: AssayQuant Technologies, Inc. (contract assay)
How it was run: as §1

DYRK4 = biological target: T2, DYRK4 (Homo sapiens, UniProt Q9NR20)
T2 construct: AssayQuant Technologies, Inc. (service laboratory)
T2 sequence (Q9NR20 1-520): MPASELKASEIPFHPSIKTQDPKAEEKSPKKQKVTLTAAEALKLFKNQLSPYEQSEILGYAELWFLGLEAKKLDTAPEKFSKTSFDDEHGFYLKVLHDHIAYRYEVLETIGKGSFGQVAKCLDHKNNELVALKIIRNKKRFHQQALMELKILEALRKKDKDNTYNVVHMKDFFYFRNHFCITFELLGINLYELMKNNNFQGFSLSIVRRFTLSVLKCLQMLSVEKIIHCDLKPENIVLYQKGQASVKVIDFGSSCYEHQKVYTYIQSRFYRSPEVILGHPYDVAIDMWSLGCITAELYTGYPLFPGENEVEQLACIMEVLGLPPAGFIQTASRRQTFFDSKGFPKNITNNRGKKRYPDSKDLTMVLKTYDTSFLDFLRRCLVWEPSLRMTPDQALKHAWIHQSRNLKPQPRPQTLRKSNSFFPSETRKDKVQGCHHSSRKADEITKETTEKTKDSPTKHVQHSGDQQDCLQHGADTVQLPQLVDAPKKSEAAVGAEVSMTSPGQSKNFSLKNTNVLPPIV
How it was run: as §1

HIPK4 = biological target: T3, HIPK4 (Homo sapiens, UniProt Q8NE63)
T3 construct: AssayQuant Technologies, Inc. (service provider)
T3 sequence (Q8NE63 1-616): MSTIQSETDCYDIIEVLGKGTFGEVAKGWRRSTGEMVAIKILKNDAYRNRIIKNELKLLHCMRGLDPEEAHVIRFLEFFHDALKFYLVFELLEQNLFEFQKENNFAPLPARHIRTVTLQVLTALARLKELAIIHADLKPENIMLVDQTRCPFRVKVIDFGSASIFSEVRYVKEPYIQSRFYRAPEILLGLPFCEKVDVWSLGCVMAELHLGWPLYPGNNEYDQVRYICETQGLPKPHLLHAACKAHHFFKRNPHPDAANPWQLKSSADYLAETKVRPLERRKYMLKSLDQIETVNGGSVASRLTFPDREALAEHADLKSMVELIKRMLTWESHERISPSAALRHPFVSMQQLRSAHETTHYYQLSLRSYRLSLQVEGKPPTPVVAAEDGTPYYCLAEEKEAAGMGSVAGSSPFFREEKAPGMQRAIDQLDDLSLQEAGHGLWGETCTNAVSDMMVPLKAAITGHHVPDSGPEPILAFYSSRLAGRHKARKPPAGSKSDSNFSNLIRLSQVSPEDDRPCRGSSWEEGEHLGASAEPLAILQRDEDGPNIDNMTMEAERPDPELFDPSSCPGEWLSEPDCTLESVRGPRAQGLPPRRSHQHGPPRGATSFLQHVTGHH
How it was run: as §1

MAPKAPK5/MK5 = biological target: T4, MAPKAPK5/MK5 (Homo sapiens, UniProt Q8IW41)
T4 construct: AssayQuant Technologies, Inc. (service provider)
T4 sequence (Q8IW41 1-473): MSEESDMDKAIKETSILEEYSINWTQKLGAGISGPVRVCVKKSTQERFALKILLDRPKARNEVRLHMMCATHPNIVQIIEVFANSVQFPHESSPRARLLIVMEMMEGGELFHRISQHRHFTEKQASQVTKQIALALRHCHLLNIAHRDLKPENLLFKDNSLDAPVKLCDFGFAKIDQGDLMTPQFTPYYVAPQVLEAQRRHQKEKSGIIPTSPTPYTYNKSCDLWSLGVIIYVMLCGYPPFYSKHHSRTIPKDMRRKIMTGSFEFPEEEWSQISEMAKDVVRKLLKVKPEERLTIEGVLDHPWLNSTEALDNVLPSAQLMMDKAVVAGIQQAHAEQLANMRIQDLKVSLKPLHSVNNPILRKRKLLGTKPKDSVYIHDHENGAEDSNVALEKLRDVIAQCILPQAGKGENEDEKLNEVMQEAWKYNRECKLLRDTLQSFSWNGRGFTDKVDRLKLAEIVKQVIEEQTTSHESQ
How it was run: as §1

DYRK2 = biological target: T5, DYRK2 (Homo sapiens, UniProt Q92630)
T5 construct: AssayQuant Technologies, Inc. (service laboratory)
T5 sequence (Q92630 1-601): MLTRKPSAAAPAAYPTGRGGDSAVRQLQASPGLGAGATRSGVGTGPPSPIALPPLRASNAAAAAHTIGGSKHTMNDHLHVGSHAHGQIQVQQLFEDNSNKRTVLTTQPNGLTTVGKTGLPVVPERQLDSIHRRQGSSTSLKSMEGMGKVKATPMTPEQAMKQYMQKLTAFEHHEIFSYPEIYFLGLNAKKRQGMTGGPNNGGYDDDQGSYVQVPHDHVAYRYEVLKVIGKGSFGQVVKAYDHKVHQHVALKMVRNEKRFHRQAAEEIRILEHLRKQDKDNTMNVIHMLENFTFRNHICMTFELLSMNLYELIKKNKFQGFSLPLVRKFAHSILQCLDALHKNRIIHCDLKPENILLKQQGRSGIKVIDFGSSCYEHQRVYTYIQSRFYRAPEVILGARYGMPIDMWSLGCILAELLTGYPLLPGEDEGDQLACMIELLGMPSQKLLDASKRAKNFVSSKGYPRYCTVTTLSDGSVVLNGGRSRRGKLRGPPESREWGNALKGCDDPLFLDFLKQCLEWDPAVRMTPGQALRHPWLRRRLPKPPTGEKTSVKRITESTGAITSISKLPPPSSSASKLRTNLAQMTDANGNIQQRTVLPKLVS
How it was run: as §1

SRC = biological target: T6, SRC (Homo sapiens, UniProt P12931)
T6 construct: AssayQuant Technologies, Inc. (contract assay)
How it was run: as §1

CDK6/D1 = biological target: T7, CDK6/D1 (Homo sapiens, UniProt Q00534)
T7 construct: AssayQuant Technologies, Inc. (ran the panel)
How it was run: as §1

Sequence of FGR (P09769 whole entry, species assumed): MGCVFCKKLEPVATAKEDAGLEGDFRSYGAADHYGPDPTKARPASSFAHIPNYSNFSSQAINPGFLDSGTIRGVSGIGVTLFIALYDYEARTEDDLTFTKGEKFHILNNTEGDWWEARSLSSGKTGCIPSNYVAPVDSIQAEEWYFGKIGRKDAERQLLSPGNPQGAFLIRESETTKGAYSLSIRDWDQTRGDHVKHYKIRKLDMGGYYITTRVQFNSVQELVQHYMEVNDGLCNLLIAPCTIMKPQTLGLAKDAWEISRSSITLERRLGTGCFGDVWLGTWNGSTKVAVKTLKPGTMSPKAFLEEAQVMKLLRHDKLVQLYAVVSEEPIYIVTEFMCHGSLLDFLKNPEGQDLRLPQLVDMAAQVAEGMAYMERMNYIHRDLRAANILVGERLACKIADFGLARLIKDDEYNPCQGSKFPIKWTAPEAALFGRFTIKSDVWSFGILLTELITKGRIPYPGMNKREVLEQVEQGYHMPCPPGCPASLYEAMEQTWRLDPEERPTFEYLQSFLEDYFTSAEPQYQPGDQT
T7 sequence (Q00534 whole entry, species assumed): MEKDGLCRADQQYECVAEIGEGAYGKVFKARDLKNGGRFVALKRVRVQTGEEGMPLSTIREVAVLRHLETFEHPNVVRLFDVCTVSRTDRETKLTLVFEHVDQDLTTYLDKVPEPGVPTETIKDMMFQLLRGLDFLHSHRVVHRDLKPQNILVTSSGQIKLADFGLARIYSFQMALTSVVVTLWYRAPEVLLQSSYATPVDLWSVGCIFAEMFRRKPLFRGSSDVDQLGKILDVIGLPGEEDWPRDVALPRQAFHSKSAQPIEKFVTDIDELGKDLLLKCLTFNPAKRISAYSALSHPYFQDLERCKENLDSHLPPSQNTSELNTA
T7 sequence (P24385 whole entry partner, species assumed): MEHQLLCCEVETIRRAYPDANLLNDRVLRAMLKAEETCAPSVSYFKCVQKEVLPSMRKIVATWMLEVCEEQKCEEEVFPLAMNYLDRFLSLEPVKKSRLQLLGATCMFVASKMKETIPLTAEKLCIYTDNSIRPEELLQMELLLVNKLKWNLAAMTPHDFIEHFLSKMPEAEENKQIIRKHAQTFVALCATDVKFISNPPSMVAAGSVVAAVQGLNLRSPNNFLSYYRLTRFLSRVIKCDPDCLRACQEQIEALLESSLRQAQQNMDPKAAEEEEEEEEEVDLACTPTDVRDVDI
T1 sequence (P57059 whole entry): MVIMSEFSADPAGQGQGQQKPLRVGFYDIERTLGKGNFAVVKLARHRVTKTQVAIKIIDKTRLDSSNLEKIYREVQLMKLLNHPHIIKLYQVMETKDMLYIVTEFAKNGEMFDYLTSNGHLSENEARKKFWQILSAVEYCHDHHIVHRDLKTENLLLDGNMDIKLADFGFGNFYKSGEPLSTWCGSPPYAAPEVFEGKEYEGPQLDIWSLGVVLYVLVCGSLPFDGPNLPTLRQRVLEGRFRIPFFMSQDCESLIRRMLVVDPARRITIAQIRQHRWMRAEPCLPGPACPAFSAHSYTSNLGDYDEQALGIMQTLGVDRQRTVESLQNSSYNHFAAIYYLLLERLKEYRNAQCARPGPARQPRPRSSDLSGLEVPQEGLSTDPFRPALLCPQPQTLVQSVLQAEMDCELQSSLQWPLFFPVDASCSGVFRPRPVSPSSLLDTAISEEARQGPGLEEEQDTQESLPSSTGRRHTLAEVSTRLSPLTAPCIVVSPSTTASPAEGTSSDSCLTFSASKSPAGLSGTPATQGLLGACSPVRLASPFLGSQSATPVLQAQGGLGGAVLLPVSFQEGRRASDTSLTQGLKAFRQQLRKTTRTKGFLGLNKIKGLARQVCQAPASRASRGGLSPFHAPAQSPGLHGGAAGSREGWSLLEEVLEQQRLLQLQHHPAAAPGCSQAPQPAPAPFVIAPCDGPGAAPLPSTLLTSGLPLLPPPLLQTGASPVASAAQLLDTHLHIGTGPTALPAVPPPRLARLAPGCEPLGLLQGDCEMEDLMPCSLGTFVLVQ
T6 sequence (P12931 whole entry, species assumed): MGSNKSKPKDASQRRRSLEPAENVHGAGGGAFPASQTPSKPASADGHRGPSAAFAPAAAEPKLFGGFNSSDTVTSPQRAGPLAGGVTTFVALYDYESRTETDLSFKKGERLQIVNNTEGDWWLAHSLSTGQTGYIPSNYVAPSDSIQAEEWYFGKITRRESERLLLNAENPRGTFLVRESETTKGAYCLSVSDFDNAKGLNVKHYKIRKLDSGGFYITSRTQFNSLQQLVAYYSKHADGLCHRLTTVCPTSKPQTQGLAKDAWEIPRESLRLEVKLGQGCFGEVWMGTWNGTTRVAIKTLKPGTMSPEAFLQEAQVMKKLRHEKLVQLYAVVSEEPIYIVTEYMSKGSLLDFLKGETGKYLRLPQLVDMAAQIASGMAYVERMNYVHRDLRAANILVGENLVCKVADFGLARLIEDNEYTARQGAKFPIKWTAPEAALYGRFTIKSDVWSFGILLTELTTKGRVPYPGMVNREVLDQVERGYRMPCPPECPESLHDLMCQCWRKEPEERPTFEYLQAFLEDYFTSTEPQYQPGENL

Structure (SMILES) | inhibition at 1 µM (FGR) [%] | inhibition at 1 µM (SK1) [%] | inhibition at 1 µM (DYRK4) [%] | inhibition at 1 µM (HIPK4) [%] | inhibition at 1 µM (MAPKAPK5/MK5) [%] | inhibition at 1 µM (DYRK2) [%] | inhibition at 1 µM (SRC) [%] | inhibition at 1 µM (CDK6/D1) [%]
C=CC(=O)N1CCCC(c2c(F)cc(C(N)=O)c3[nH]c4c(c23)CCCCC4)C1 (single isomer, unassigned) [Compound 5-6] | 17.1 | -13.6 | 23.2 | -1.6 | 3.7 | 6.1 | -28.3 | -5.8
C=CC(=O)N1CCC[C@@H](c2c(F)cc(C(N)=O)c3[nH]c4c(c23)CC2(CC4)CC2)C1 [Compound 6-2, (S)-5-(1-acryloylpiperidin-3-yl)-6-fluoro-1,2,4,9-tetrahydrospiro[carbazole-3,1′-cyclopropane]-8-carboxamide] | -25.9 | 4.6 | 15.4 | -1.9 | 8.6 | 13.3 | -7 | -4.3
C=CC(=O)N1CCC[C@@H](c2c(F)cc(C(N)=O)c3[nH]c4c(c23)CCC4)C1 [Compound 10-2, (S)-8-(1-acryloylpiperidin-3-yl)-7-fluoro-1,2,3,4-tetrahydrocyclo-penta[b]indole-5-carboxamide] | 3.6 | 13.5 | -6.6 | 24.3 | -12.6 | 0.3 | -1.8 | 12.8
